Measurements from patent publication EP0846683B1, “4-Hydroxy-piperidine derivatives” (F. HOFFMANN-LA ROCHE AG, priority 1996, dated 1998).
Counter-ions that a name gives are not always drawn.

Legend:
[1] = target: 3H-Prazosine binding; assay: 3H-Prazosine binding (displacement, rat brain membranes); details: 0.2 nM 3H-Prazosine, 30 minutes at room temperature
Experimental: (§1) Male Füllinsdorf albino rats weighing between 150-200 g were used. Membranes were prepared by homogenization of the whole brain minus cerebellum and medulla oblongata with a Plytron (10.000 rpm, 30 seconds), in 25 volumes of a cold Tris-HCl 50 mM, EDTA 10mM, pH 7.1 buffer. The homogenate was centrifuged at 48.000 g for 10 minutes at 4°C. The pellet was resuspended using the Polytron in the same volume of buffer and the homogenate was incubated at 37°C for 10 minutes. After centrifugation the pellet was homogenized in the same buffer and frozen at -80°C for at least 16 hours but not more than 10 days. For the binding assay the homogenate was thawed at 37°C, centrifuged and the pellet was washed three times as above in a Tris-HCl 5mM, pH 7.4 cold buffer. The final pellet was resuspended in the same buffer and used at a final concentration of 200 µg of protein/ml.
3H-Prazosine binding experiments were performed using a Tris-HCl 50 mM, pH 7.4 buffer. For displacement experiments 0.2 nM of 3H-Prazosine were used and non specific binding was measured using 100 µM of Chlorpromazine. The incubation time was 30 minutes at room temperature and the assay was stopped by filtration on Whatman GF/B glass fiber filters (Unifilter-96, Canberra Packard S.A., Zürich, Switzerland). The filters were washed 5 times with cold buffer. The radioactivity on the filter was counted on a Packard Top-count microplate scintillation counter after addition of […] of microscint 40 (Canberra Packard S.A., Zürich, Switzerland). The effects of compounds were measured using a minimum of 8 concentrations and repeated at least once. The pooled normalized values were analyzed using a non-linear regression calculation program which provide IC50 with their relative upper and lower 95% confidence limits (RS1, BBN, USA).

[2] = target: T1, NMDA receptor (Rattus norvegicus, UniProt P35439+Q00960); assay: 3H-Ro 25-6981 binding (displacement, rat brain membranes); details: 5 nM 3H-Ro 25-6981, 2 hours at 4°C
T1 construct: Membranes were prepared by homogenization of the whole brain minus cerebellum and medulla oblongata; from tissue; host or cells: rat whole brain minus cerebellum and medulla oblongata, membranes
Experimental: 3H-Ro 25-6981 binding (Ro 25-6981 is [R-(R*,S*)]-a-(4-Hydroxy-phenyl)-b-methyl-4-(phenyl-methyl)-1-piperidine propanol)
as §1, with “Polytron” for “Plytron”, “10 mM,” for “10mM,”, “5 mM,” for “5mM,”
3H-Ro 25-6981 binding experiments were performed using a Tris-HCl 50 mM, pH 7.4 buffer. For displacement experiments 5 nM of 3H-Ro 25-6981 were used and non specific binding was measured using 10 µM of tetrahydroisoquinoline and usually it accounts for 10% of the total. The incubation time was 2 hours at 4°C and the assay was stopped by filtration on Whatmann GF/B glass fiber filters (Unifilter-96, Packard, Zürich, Switzerland). The filters were washed 5 times with cold buffer. The radioactivity on the filter was counted on a Packard Top-count microplate scintillation counter after addition of […] of microscint 40 (Canberra Packard S.A., Zürich, Switzerland).
The effects of compounds were measured using a minimum of 8 concentrations and repeated at least once. The pooled normalized values were analyzed using a non-linear regression calculation program which provide IC50 with their relative upper and lower 95% confidence limits (RS1, BBN, USA).

[3] = target: T2, NR1C + NR2B (Rattus norvegicus, UniProt P35439+Q00960); assay: Electrophysiology on recombinant NMDA receptors (voltage clamp, Xenopus laevis oocytes), NR1C + NR2B; type: cell-based; details: 0.1 µM compound; oocytes clamped to -80 mV; 1.3 µM Glu plus 0.07 µM Gly; mean of four to six oocytes
T2 construct: expressed in transfected cells; host or cells: Xenopus laevis oocytes, nuclear injection of pBC/CMV expression plasmids
Text: (§2) Electrophysiology on recombinant NMDA receptors
(§3) cDNA clones coding for the subunits NR1C and NR2A of the NMDA receptor (see Hollmann and Heinemann, 1994, Annu. Rev. Neurosci. 17:31 for nomenclature of NMDA receptor subunits) were isolated from a rat brain λgt11 cDNA library as published elsewhere (Sigel et al., 1994, J. Biol. Chem. 269:8204). The clone for the subunit NR2B of the rat brain NMDA receptor was obtained from S. Nakanishi (Kyoto, Japan). The cDNAs encoding rat NR1C, NR2A and NR2B were subcloned into the expression vector pBC/CMV (Bertocci et al., 1991, Proc. Natl. Acad. Sci. U.S.A. 88:1416), placing transcription of the cDNA under control of the human cytomegalovirus promoter. CsCl-purified expression plasmids were mixed in a 1:3 ratio of NR1C:NR2A or NR1C:NR2B in injection buffer (88 mM NaCI, 1 mM KCl, 15 mM HEPES, at pH 7.0). Oocytes of South African frogs (Xenopus laevis) were used for expressing either a combination of the NR1C and NR2A subunits or the NR1C and NR2B subunits. 12 to 120 pg of a 1:3 (NR1C:NR2B) mixture of the respective cDNA species were injected into the nucleus of every oocyte. On the following two days the ion current through the NMDA receptor channels was measured in voltage clamp experiments for the methods of cDNA expression in oocytes and voltage-clamping (see, e.g., Bertrand et al., 1991, Methods in Neurosciences 4:174). The membrane potential was clamped to -80 mV and the receptors were activated by applying a modified Ringer's solution containing the NMDA-receptor agonists L-glutamate (Glu) and glycine (Gly). Different agonist concentrations were chosen for either subunit combination to account for the different agonist sensitivities of the two types of receptors (2.7 µM Glu plus 0.9 µM Gly for NR1C + NR2A and 1.3 µM Glu plus 0.07 µM Gly for NR1C + NR2B). The agonists were applied for 15 s intervals once every 2.5 min by rapid superfusion of the oocyte with agonist containing solution and the amplitude of the agonist-evoked current was measured immediately before the end of each application. After a series of initial control applications the antagonist to be tested was added to both, the basal Ringer's and the agonist containing solution. The antagonist concentration applied to oocytes expressing the NR2A subunit was 10 µmol/l, whereas 0.1 µmol/l were applied to the NR2B expressing oocytes. Four to six oocytes were tested for every compound and NMDA receptor subtype. Oocytes were exposed to the compounds for 5 to 30 min depending on the time needed for reaching an equilibrium block of the NMDA receptor current. For every oocyte the decrease of the current amplitude was expressed as a percentage of the control current measured before application of the compound. Figures in the table are arithmetic mean values of these percentage values.

[4] = target: T3, NR1C + NR2A (Rattus norvegicus, UniProt Q00959); assay: Electrophysiology on recombinant NMDA receptors (voltage clamp, Xenopus laevis oocytes), NR1C + NR2A; type: cell-based; details: 10 µM compound; oocytes clamped to -80 mV; 2.7 µM Glu plus 0.9 µM Gly; mean of four to six oocytes
T3 construct: expressed in transfected cells; host or cells: Xenopus laevis oocytes, nuclear injection of pBC/CMV expression plasmids
Text: as §2, §3

T3 sequence (Q00959 23-1464, other chains not shown): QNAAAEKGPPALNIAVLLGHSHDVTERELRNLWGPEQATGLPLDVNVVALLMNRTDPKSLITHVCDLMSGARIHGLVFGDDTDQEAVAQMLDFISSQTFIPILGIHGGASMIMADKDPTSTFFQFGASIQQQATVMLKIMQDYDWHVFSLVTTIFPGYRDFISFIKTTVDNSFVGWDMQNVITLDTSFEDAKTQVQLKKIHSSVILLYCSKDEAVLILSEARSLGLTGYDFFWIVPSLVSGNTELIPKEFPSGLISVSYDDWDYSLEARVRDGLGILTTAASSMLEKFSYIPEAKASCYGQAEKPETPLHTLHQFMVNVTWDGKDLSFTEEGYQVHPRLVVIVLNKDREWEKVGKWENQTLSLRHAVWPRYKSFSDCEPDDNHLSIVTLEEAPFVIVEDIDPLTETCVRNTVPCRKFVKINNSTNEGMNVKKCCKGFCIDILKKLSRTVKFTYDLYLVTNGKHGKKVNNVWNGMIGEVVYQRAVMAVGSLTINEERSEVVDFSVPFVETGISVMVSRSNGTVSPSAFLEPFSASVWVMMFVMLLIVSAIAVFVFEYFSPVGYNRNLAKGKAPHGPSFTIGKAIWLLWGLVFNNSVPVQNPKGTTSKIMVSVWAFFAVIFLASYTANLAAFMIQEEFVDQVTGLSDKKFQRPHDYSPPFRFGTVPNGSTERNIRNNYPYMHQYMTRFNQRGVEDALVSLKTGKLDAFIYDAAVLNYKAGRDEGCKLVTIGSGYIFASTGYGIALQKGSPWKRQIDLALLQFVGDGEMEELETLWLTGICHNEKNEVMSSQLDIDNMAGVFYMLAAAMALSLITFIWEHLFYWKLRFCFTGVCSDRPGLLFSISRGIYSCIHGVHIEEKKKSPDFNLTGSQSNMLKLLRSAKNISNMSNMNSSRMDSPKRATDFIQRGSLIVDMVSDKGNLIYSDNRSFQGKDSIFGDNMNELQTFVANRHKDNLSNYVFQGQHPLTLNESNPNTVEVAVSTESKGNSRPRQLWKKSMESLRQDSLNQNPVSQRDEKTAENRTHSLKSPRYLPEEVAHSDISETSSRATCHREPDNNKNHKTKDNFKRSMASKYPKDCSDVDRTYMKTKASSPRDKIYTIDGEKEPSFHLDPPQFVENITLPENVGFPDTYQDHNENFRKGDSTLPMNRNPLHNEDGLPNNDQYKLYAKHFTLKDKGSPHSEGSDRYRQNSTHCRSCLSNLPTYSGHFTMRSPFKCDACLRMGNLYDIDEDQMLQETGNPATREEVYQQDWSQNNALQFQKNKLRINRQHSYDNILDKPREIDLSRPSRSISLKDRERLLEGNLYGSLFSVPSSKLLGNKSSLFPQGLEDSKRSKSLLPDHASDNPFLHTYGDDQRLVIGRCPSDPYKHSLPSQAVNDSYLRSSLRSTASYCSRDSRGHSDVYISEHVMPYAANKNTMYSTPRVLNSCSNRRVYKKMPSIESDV
T2 sequence (Q00960 27-1482, other chains not shown): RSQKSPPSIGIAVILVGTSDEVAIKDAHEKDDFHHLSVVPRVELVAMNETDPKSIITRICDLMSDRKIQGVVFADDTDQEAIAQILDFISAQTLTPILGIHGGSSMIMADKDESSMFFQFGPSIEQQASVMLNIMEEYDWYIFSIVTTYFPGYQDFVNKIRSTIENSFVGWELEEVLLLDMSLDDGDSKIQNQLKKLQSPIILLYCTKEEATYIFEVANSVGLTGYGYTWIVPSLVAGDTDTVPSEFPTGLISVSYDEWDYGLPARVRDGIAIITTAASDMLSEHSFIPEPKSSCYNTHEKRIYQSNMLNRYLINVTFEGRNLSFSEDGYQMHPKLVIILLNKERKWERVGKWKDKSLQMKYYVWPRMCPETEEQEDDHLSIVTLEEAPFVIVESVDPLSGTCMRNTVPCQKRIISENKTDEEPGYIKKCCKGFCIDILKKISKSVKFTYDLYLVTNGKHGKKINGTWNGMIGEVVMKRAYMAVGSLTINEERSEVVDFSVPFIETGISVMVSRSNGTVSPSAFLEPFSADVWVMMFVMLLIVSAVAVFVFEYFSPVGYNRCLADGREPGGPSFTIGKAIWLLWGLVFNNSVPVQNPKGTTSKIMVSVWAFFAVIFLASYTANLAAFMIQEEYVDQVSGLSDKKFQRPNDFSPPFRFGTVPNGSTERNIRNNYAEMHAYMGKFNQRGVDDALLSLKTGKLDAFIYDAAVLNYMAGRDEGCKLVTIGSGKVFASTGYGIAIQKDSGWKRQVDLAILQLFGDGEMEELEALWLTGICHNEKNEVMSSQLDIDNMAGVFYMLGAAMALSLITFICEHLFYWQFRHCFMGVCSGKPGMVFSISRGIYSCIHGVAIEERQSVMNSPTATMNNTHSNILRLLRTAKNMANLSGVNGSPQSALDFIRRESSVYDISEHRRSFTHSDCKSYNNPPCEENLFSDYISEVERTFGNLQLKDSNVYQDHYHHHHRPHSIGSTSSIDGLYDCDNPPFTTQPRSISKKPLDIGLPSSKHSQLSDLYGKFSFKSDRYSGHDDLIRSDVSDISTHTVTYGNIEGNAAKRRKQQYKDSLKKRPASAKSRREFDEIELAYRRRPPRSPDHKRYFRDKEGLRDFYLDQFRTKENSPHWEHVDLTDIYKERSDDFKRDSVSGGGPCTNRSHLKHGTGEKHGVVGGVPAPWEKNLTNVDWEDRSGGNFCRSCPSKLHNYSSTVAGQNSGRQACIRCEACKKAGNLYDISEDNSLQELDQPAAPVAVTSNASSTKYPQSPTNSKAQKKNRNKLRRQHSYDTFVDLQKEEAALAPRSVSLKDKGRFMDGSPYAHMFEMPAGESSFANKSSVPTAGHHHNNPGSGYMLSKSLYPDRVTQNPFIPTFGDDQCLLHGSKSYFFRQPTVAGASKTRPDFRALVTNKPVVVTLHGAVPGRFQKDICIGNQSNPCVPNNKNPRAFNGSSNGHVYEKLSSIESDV
T1 sequence (Q00960 27-1482, other chains not shown): as above

SMILES	IC50 [1]	IC50 [2]	Electrophysiology NR1C + NR2B % block by 0.1 µM [3]	Electrophysiology NR1C + NR2A % block by 10 µM [4]
Cc1ccc(CC2(O)CCN(CC3Cc4cc(O)ccc4O3)CC2)cc1 (racemic) [Example 2, (RS)-1-(5-Hydroxy-2,3-dihydro-benzofuran-2-ylmethyl)-4-(4-methyl-benzyl)-piperidin-4-ol hydrochloride]	3.2 µM	0.02 µM	–	–
Oc1ccc2c(c1)CC(CN1CCC(O)(Cc3ccccc3)CC1)O2 (racemic) [Example 4, (RS)-4-Benzyl-1-(5-hydroxy-2,3-dihydro-benzofuran-2-ylmethyl)-piperidin-4-ol hydrochloride]	2.5 µM	0.05 µM	–	–
Oc1ccc2c(c1)CC(CN1CCC(O)(Cc3ccc(F)cc3)CC1)O2 (racemic) [Example 5, (RS)-4-(4-fluoro-benzyl)-1-(5-hydroxy-2,3-dihydro-benzofuran-2-ylmethyl)-piperidin-4-ol hydrochloride]	4 µM	0.04 µM	–	–
CCc1ccc(CC2(O)CCN(CC3Cc4cc(O)ccc4O3)CC2)cc1.Cl (racemic) [Example 7, (RS)-4-(4-Ethyl-benzyl)-1-(5-hydroxy-2,3-dihydro-benzofuran-2-ylmethyl)-piperidin-4-ol hydrochloride]	6 µM	0.012 µM	89%	12%
Cc1ccc(CC2(O)CCN(CC3Cc4cc(NS(C)(=O)=O)ccc4O3)CC2)cc1 (racemic) [Example 23, (RS)-N(2-[4-hydroxy-4-(4-methyl-benzyl)-piperidin-1-ylmethyl]-2,3-dihydrobenzofuran-5-yl]-methane sulfonamide hydrochloride]	2.3 µM	0.04 µM	–	–
Cc1ccc(CC2(O)CCN(C[C@@H]3Cc4cc(O)ccc4O3)CC2)cc1.Cl [Example 13, (S)-1-(5-Hydroxy-2,3-dihydro-benzofuran-2-ylmethyl)-4-(4-methyl-benzyl)-piperidin-4-ol hydrochloride]	6 µM	0.014 µM	93%	8%
Cl.Oc1ccc2c(c1)C[C@@H](CN1CCC(O)(Cc3ccc(Cl)cc3)CC1)O2 [Example 14, (S)-1-(5-Hydroxy-2,3-dihydro-benzofuran-2-ylmethyl)-4-(4-chloro-benzyl)-piperidin-4-ol hydrochloride]	6 µM	0.005 µM	90%	9%

Continued, in another order:

IC50 [1]	SMILES	IC50 [2]	Electrophysiology NR1C + NR2B % block by 0.1 µM [3]	Electrophysiology NR1C + NR2A % block by 10 µM [4]
3.2 µM	Cc1ccc(CC2(O)CCN(CC3Cc4ccc(O)cc4C3)CC2)cc1 (racemic) [Example 19, (RS)-1-(5-Hydroxy-indan-2-ylmethyl)-4-(4-methyl-benzyl)-piperidin-4-ol]	0.055 µM	–	–
6.6 µM	Cc1ccc(CC2(O)CCN(CC3Cc4cc(O)ccc4N3)CC2)cc1 (racemic) [Example 21, (RS)-2-[4-Hydroxy-4-(4-methyl-benzyl)-piperidin-1-ylmethyl]-2,3-dihydro-1H-indol-5-ol]	0.055 µM	–	–
6.5 µM	CS(=O)(=O)Nc1ccc2c(c1)CC(CN1CCC(O)(Cc3ccc(Cl)cc3)CC1)O2 (racemic) [Example 22, (RS)-N-{2-[4-(4-chloro-benzyl)-4-hydroxy-pipiridin-1-ylmethyl]-2,3-dihydroxybenzofuran-5-yl}methane sulfonamide hydrochloride]	–	–	–
6 µM	Cc1ccc(CC2(O)CCN(C[C@H]3CCc4cc(O)ccc4[C@@H]3O)CC2)cc1.O=C(O)/C=C/C(=O)O (racemic) [Example 27, (1RS, 2RS)-1-(1,6-Dihydroxy-1,2,3,4-tetrahydro-naphthalen-2-ylmethyl)-4-(4-methyl-benzyl)-piperidin-4-ol fumarate salt]	–	91%	15%
11 µM	Oc1ccc2c(c1)CC[C@H](CN1CCC(O)(Cc3ccccc3)CC1)[C@H]2O (racemic) [Example 29, (1RS,2RS)-2-(4-Benzyl-4-hydroxy-piperidin-1-yl-methyl)-6-hydroxy-1,2,3,4-tetrahydro-naphthalen-1-ol]	0.023 µM	–	–
0.8 µM	Cc1ccc(CC2(O)CCN(CC3CCc4cc(O)ccc4C3)CC2)cc1 (racemic) [Example 30, (RS)-1-(6-Hydroxy-1,2,3,4-tetrahydro-naphthalen-2-ylmethyl)-4-(4-methyl-benzyl)-piperidin-4-ol hydrochloride]	0.02 µM	–	–
5 µM	Cc1ccc(CC2(O)CCN(CC3Cc4cc(O)ccc4C3O)CC2)cc1 (stereo not drawn) [Example 16, (1RS,2RS) and (1RS,2SR)-2-[4-Hydroxy-4-(4-methyl-benzyl)-piperidine-1-ylmethyl]-indan-1,5-diol fumarate salt]	0.023 µM	86%	6%
